Measurements: US11091531B2, “Antigen-specific helper T-cell receptor genes” (International Institute of Cancer Immunology, Inc., priority 2012, dated 2021)
Peptide text beside a SMILES is read from it.

Test system: HLA-DPB1*05:01-positive TF-1 cells
Assay: 51Cr releasing assay with target cells pretreated with granzyme-inhibitor
Format: cell-based, human
Conditions: target cells pretreated with 100 μM for 2 hours; p<0.05; FIG. 4F
Procedure: To confirm whether the cytotoxic activity of the WT1332-TCR-transduced CD4^+ T-cells was dependent on the granzyme B/perforin pathway, HLA-DPB1*05:01-positive TF-1 cells pretreated with 100 μM of a granzyme-inhibitor, Ac-IETD-Cho, were used as target cells. The HLA-DPB1*05:01-positive TF-1 cells were pretreated with 100 μM of Ac-IETD-Cho or DMSO (control) for 2 hours, then labeled with ^51Cr, and incubated with WT1332-TCR-transduced CD4^+ T-cells, and ^51Cr releasing assay was performed.

## CC[C@H](C)[C@H](NC(C)=O)C(=O)N[C@@H](CCC(=O)O)C(=O)N[C@H](C(=O)N[C@H](C=O)CC(=O)O)[C@@H](C)O [Ac-IETD-Cho] (Ac-IETD-aldehyde)
  cytotoxic activity of WT1332-TCR-transduced CD4+ T-cells on pretreated target cells compared with DMSO: markedly lower
